{
  "source": "the kinase profiling compilation of Christmann-Franck et al. (2016)",
  "experiment_in_all_cases": "KINOMEscan competition binding",
  "conditions_in_all_cases": "compound 1.0 µM",
  "key": {"[1]": {"test_system": "PIK3CA (human), P42336 [I800L]"}, "[2]": {"biological_target": "MAP2K3 (human) (UniProt P46734)", "sequence (P46734 whole entry, looked up)": "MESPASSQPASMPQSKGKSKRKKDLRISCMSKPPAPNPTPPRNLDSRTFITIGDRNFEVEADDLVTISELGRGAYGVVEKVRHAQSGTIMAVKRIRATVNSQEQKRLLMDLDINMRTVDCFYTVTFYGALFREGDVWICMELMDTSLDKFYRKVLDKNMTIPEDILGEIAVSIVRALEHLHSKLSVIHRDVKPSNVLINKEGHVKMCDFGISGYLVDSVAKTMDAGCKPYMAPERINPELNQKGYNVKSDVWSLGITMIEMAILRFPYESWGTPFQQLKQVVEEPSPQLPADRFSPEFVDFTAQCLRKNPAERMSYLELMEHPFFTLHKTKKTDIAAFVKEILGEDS"}, "[3]": {"biological_target": "MYLK2 (human) (UniProt Q9H1R3)"}, "[4]": {"test_system": "PIK3CA (human), P42336 [M1043I]"}, "[5]": {"biological_target": "BLK (human) (UniProt P51451)"}, "[6]": {"biological_target": "ACVR2B (human) (UniProt Q13705)"}, "[7]": {"biological_target": "SGK1 (human) (UniProt O00141)", "sequence (O00141 whole entry, looked up)": "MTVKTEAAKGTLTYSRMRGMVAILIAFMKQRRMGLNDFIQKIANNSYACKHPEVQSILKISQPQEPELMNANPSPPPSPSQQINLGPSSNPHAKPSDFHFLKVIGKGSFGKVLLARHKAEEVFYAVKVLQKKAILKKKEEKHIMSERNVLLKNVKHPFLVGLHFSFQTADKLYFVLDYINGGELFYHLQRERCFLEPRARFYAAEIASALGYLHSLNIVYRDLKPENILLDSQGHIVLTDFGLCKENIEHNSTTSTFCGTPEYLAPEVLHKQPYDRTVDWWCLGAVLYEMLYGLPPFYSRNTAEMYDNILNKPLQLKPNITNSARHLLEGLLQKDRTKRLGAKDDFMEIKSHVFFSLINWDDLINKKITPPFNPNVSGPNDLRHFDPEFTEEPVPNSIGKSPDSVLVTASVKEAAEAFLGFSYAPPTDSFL"}, "[8]": {"biological_target": "FGFR4 (human) (UniProt P22455)"}, "[9]": {"biological_target": "CDK19 (human) (UniProt Q9BWU1)"}, "[10]": {"biological_target": "MAP3K12 (human) (UniProt Q12852)"}, "[11]": {"biological_target": "PIP4K2B (human) (UniProt P78356)"}, "[12]": {"biological_target": "RPS6KA6 KD1 (human) (UniProt Q9UK32)"}, "[13]": {"biological_target": "NEK6 (human) (UniProt Q9HC98)"}, "[14]": {"biological_target": "PIM1 (human) (UniProt P11309)", "sequence (P11309 whole entry, looked up)": "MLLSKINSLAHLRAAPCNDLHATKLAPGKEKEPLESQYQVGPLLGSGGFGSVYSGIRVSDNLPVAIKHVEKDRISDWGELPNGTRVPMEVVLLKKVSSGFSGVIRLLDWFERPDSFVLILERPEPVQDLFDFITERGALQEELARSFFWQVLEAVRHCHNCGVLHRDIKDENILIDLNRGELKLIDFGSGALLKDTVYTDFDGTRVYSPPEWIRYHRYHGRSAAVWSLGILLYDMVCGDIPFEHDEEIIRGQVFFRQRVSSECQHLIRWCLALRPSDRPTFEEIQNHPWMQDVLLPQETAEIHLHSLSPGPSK"}, "[15]": {"biological_target": "BUB1 (human) (UniProt O43683)"}, "[16]": {"biological_target": "EPHA4 (human) (UniProt P54764)"}, "[17]": {"biological_target": "MLTK (human) (UniProt Q9NYL2)"}, "[18]": {"biological_target": "ERBB4 (human) (UniProt Q15303)", "sequence (Q15303 whole entry, looked up)": "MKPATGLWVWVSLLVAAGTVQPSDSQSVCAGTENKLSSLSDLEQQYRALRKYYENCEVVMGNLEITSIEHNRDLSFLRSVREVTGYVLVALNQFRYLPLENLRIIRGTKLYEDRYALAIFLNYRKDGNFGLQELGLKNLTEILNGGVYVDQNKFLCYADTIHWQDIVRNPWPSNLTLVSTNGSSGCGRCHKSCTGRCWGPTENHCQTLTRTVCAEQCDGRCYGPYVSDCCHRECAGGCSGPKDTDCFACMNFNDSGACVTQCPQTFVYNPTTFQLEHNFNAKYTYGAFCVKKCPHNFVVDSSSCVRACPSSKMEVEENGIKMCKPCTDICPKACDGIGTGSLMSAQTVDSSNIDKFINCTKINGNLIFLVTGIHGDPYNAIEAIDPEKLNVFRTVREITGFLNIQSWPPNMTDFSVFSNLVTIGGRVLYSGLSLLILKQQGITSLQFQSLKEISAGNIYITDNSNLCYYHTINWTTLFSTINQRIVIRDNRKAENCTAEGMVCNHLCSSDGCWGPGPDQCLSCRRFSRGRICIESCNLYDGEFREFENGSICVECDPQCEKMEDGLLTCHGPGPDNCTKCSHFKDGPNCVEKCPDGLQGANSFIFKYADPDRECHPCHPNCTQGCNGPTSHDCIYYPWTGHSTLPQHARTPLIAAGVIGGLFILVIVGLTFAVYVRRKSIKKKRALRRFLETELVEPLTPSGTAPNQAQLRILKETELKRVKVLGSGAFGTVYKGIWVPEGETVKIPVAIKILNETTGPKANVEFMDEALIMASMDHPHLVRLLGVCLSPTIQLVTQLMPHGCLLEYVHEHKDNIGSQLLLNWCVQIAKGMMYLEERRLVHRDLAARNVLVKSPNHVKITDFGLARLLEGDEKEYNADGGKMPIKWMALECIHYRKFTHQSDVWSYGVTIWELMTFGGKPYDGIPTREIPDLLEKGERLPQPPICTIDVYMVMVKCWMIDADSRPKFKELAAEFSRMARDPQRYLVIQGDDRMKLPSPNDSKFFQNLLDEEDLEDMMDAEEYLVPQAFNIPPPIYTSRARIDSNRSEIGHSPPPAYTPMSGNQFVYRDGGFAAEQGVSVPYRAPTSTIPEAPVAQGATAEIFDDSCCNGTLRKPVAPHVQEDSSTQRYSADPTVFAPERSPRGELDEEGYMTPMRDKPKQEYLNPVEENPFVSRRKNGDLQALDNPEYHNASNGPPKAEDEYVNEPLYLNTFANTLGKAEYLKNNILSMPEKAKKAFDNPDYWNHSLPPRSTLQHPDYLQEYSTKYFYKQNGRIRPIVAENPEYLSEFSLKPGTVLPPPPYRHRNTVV"}, "[19]": {"biological_target": "NEK2 (human) (UniProt P51955)"}, "[20]": {"test_system": "EGFR (human), P00533 [G719C]"}, "[21]": {"biological_target": "PRKD3 (human) (UniProt O94806)"}, "[22]": {"biological_target": "ZAP70 (human) (UniProt P43403)", "sequence (P43403 whole entry, looked up)": "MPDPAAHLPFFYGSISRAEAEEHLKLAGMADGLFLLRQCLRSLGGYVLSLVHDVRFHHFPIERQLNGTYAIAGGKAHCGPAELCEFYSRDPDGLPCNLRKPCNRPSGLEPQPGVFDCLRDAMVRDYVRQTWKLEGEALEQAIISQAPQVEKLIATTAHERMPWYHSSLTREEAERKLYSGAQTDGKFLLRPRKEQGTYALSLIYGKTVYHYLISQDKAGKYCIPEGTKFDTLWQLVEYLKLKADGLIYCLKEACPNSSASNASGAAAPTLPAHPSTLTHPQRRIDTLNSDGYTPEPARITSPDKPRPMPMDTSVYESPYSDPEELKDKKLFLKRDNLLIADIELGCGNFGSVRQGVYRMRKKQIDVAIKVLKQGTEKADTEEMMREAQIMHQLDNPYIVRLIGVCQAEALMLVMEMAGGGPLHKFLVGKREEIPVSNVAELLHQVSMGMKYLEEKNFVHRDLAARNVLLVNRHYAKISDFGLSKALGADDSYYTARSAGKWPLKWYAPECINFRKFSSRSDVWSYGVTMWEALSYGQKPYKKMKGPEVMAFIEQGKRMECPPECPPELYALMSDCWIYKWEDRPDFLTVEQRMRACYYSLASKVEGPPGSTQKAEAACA"}, "[23]": {"biological_target": "YSK4 (human) (UniProt Q56UN5)"}, "[24]": {"biological_target": "ADCK3 (human) (UniProt Q8NI60)"}, "[25]": {"biological_target": "MAP3K15 (human) (UniProt Q6ZN16)"}, "[26]": {"biological_target": "CDK3 (human) (UniProt Q00526)"}, "[27]": {"biological_target": "NTRK3 (human) (UniProt Q16288)", "sequence (Q16288 whole entry, looked up)": "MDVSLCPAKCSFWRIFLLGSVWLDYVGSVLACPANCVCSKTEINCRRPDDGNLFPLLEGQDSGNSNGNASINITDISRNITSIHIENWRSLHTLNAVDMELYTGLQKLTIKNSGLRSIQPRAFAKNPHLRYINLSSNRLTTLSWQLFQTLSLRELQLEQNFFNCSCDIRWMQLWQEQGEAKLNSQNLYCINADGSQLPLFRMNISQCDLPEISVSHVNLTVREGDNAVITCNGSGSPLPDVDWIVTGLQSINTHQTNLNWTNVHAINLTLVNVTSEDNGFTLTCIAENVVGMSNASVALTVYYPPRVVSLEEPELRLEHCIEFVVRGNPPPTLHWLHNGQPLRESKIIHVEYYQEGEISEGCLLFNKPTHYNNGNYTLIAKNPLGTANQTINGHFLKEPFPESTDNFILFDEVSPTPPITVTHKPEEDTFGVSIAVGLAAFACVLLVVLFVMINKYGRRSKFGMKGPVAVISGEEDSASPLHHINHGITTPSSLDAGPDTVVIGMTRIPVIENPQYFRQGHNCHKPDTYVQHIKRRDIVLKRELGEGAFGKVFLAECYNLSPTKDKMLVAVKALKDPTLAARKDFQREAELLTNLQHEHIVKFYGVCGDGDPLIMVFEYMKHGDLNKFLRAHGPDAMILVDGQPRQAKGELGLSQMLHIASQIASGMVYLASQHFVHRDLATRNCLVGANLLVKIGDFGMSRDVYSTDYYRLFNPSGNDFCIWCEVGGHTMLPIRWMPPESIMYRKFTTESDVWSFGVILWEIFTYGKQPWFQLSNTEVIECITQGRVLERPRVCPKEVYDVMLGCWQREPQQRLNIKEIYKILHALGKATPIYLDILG"}, "[28]": {"biological_target": "EPHA5 (human) (UniProt P54756)"}, "[29]": {"biological_target": "SGK3 (human) (UniProt Q96BR1)"}, "[30]": {"biological_target": "MAP4K3 (human) (UniProt Q8IVH8)"}, "[31]": {"biological_target": "MAP4K2 (human) (UniProt Q12851)"}, "[32]": {"biological_target": "DDR2 (human) (UniProt Q16832)"}, "[33]": {"biological_target": "CSNK1G2 (human) (UniProt P78368)", "sequence (P78368 whole entry, looked up)": "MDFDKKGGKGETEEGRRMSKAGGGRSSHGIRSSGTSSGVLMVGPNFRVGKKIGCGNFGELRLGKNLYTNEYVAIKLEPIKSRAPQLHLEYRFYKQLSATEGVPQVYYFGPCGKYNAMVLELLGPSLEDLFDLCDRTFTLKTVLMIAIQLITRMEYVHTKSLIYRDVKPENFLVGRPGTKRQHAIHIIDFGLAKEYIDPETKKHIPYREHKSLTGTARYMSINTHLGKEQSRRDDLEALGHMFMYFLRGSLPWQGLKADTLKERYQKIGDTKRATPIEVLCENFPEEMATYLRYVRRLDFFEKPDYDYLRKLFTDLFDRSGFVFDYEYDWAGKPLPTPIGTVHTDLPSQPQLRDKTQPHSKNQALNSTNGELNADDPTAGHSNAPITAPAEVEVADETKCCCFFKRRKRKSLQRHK"}, "[34]": {"test_system": "EGFR (human), P00533 [L861Q]"}, "[35]": {"biological_target": "CAMK2D (human) (UniProt Q13557)"}, "[36]": {"biological_target": "STK4 (human) (UniProt Q13043)"}, "[37]": {"biological_target": "RPS6KA3 KD1 (human) (UniProt P51812)"}, "[38]": {"biological_target": "RPS6KA3 KD2 (human) (UniProt P51812)", "sequence (P51812 whole entry, looked up)": "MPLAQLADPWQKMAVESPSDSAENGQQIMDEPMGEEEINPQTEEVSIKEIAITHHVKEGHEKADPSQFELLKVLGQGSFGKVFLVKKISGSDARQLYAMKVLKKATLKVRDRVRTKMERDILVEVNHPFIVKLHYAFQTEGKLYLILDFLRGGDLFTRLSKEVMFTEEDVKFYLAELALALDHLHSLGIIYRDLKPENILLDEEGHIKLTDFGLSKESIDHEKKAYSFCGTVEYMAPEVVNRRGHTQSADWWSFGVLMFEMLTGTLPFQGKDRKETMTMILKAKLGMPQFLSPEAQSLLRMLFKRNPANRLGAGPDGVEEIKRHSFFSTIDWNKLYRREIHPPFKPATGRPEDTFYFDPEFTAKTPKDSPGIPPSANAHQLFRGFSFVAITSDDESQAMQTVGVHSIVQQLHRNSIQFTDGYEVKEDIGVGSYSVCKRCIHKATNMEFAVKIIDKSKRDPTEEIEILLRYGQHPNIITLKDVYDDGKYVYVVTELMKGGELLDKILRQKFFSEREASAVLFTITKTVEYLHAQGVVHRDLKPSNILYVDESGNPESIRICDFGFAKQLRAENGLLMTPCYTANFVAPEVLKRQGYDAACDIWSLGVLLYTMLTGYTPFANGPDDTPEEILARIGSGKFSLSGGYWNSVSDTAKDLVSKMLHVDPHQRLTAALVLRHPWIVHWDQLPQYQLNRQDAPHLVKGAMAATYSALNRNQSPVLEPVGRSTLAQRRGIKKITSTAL"}, "[39]": {"biological_target": "NTRK1 (human) (UniProt P04629)"}},
  "data": [
    {"molecule": "CNc1nc(Nc2ccc(C(=O)N3CCOCC3)cc2OC)ncc1Cl", "values": [
      {"measurement": "kinase still bound, per cent of control", "setting": "[1]", "result": 96, "unit": "%"},
      {"measurement": "kinase still bound, per cent of control", "setting": "[2]", "result": 93, "unit": "%"},
      {"measurement": "kinase still bound, per cent of control", "setting": "[3]", "result": 100, "unit": "%"},
      {"measurement": "kinase still bound, per cent of control", "setting": "[4]", "result": 93, "unit": "%"},
      {"measurement": "kinase still bound, per cent of control", "setting": "[5]", "result": 100, "unit": "%"},
      {"measurement": "kinase still bound, per cent of control", "setting": "[6]", "result": 65, "unit": "%"},
      {"measurement": "kinase still bound, per cent of control", "setting": "[7]", "result": 82, "unit": "%"},
      {"measurement": "kinase still bound, per cent of control", "setting": "[8]", "result": 52, "unit": "%"},
      {"measurement": "residual activity", "setting": "[9]", "result": 100, "unit": "%"},
      {"measurement": "residual activity", "setting": "[10]", "result": 100, "unit": "%"},
      {"measurement": "kinase still bound, per cent of control", "setting": "[11]", "result": 83, "unit": "%"},
      {"measurement": "kinase still bound, per cent of control", "setting": "[12]", "result": 100, "unit": "%"},
      {"measurement": "kinase still bound, per cent of control", "setting": "[13]", "result": 100, "unit": "%"},
      {"measurement": "kinase still bound, per cent of control", "setting": "[14]", "result": 100, "unit": "%"},
      {"measurement": "kinase still bound, per cent of control", "setting": "[15]", "result": 100, "unit": "%"},
      {"measurement": "kinase still bound, per cent of control", "setting": "[16]", "result": 100, "unit": "%"},
      {"measurement": "kinase still bound, per cent of control", "setting": "[17]", "result": 100, "unit": "%"},
      {"measurement": "kinase still bound, per cent of control", "setting": "[18]", "result": 100, "unit": "%"},
      {"measurement": "kinase still bound, per cent of control", "setting": "[19]", "result": 78, "unit": "%"},
      {"measurement": "kinase still bound, per cent of control", "setting": "[20]", "result": 100, "unit": "%"},
      {"measurement": "kinase still bound, per cent of control", "setting": "[21]", "result": 98, "unit": "%"},
      {"measurement": "kinase still bound, per cent of control", "setting": "[22]", "result": 92, "unit": "%"},
      {"measurement": "kinase still bound, per cent of control", "setting": "[23]", "result": 44, "unit": "%"},
      {"measurement": "kinase still bound, per cent of control", "setting": "[24]", "result": 100, "unit": "%"},
      {"measurement": "kinase still bound, per cent of control", "setting": "[25]", "result": 97, "unit": "%"},
      {"measurement": "residual activity", "setting": "[26]", "result": 100, "unit": "%"},
      {"measurement": "kinase still bound, per cent of control", "setting": "[27]", "result": 100, "unit": "%"},
      {"measurement": "kinase still bound, per cent of control", "setting": "[28]", "result": 100, "unit": "%"},
      {"measurement": "kinase still bound, per cent of control", "setting": "[29]", "result": 100, "unit": "%"},
      {"measurement": "kinase still bound, per cent of control", "setting": "[30]", "result": 100, "unit": "%"},
      {"measurement": "kinase still bound, per cent of control", "setting": "[31]", "result": 100, "unit": "%"},
      {"measurement": "kinase still bound, per cent of control", "setting": "[32]", "result": 100, "unit": "%"},
      {"measurement": "kinase still bound, per cent of control", "setting": "[33]", "result": 100, "unit": "%"},
      {"measurement": "kinase still bound, per cent of control", "setting": "[34]", "result": 100, "unit": "%"},
      {"measurement": "kinase still bound, per cent of control", "setting": "[35]", "result": 87, "unit": "%"},
      {"measurement": "kinase still bound, per cent of control", "setting": "[36]", "result": 100, "unit": "%"},
      {"measurement": "kinase still bound, per cent of control", "setting": "[37]", "result": 100, "unit": "%"},
      {"measurement": "kinase still bound, per cent of control", "setting": "[38]", "result": 95, "unit": "%"},
      {"measurement": "kinase still bound, per cent of control", "setting": "[39]", "result": 99, "unit": "%"}
    ]}
  ]
}
